Data from patent US20130023540A1, “TREATMENT OF MASTITIS” (BAYER HEALTHCARE AG, priority 2004, published 2013).

Assay: investigation of the substances having an antibacterial effect in bovine milk following parenteral administration of enrofloxacin
Type: in vivo

| SMILES | proportion in the milk [%] | antibacterial activity in bovine milk (enrichment of active compounds as compared with the serum concentration) |
| --- | --- | --- |
| O=C(O)c1cn(C2CC2)c2cc(N3CCNCC3)c(F)cc2c1=O [ciprofloxacin, 1-cyclopropyl-7-(1-piperazinyl)-6-fluoro-1,4-dihydro-4-oxo-3-quinolonecarboxylic acid] | ~90 | – |
| CCN1CCN(c2cc3c(cc2F)c(=O)c(C(=O)O)cn3C2CC2)CC1 [enrofloxacin, 1-cyclopropyl-7-(4-ethyl-1-piperazinyl)-6-fluoro-1,4-dihydro-4-oxo-3-quinolone-carboxylic acid] | ~10 | high antibacterial activity |
